Common to all, as to format: functional, cell-based
In test [1] the test system is MKN-28. The experiment in a line: Cytotoxicity against human MKN28 cells after 72 hrs by MTT assay. Conditions: MKN-28, 72 h.
In test [2] the test system is MCF7. Briefly: Cytotoxicity against human MCF7 cells after 72 hrs by MTT assay. Conditions: MCF7, 72 h.
For test [3], the system named is HepG2. The experiment in a line: Cytotoxicity against human HepG2 cells after 72 hrs by MTT assay. The conditions noted are these: HepG2, 72 h.
Test [4] relates to HT-29. Briefly: Cytotoxicity against human HT-29 cells after 72 hrs by MTT assay. The conditions noted are these: HT-29, 72 h.

`C/C=C/C(=O)O[C@H]1[C@H](O[C@H]2CC[C@]34C[C@]35CC[C@]3(C)[C@H]6[C@H](C)C[C@H]7O[C@@]6(C[C@@H]7C(C)(C)OC(C)=O)[C@H](O)[C@@]3(C)[C@@H]5CC[C@H]4C2(C)C)OC[C@@H](O)[C@@H]1O`: the IC50 in test [1] is 53.8 µM; in test [2] it was more than 100 µM; in test [3], 6.37 µM; in test [4], 78.5 µM.
Take `C/C=C/C(=O)O[C@@H]1CO[C@@H](O[C@H]2CC[C@]34C[C@]35CC[C@]3(C)[C@H]6[C@H](C)C[C@H]7O[C@@]6(C[C@@H]7C(C)(C)OC(C)=O)[C@H](O)[C@@]3(C)[C@@H]5CC[C@H]4C2(C)C)[C@H](O)[C@H]1O`: the IC50 is more than 100 µM in test [1], more than 100 µM in test [2], 1.29 µM in test [3] and more than 100 µM in test [4].
As for `CC(=O)O[C@@H]1[C@@H](O)[C@H](O[C@H]2CC[C@]34C[C@]35CC[C@]3(C)[C@H]6[C@H](C)C[C@H]7O[C@@]6(C[C@@H]7C(C)(C)OC(C)=O)[C@H](O)[C@@]3(C)[C@@H]5CC[C@H]4C2(C)C)OC[C@H]1O`, the IC50 was more than 100 µM in test [1], more than 100 µM in test [2], 0.71 µM in test [3] and 28.9 µM in test [4].
With `CC(=O)O[C@@H]1CO[C@@H](O[C@H]2CC[C@]34C[C@]35CC[C@]3(C)[C@H]6[C@H](C)C[C@H]7O[C@@]6(C[C@@H]7C(C)(C)OC(C)=O)[C@H](O)[C@@]3(C)[C@@H]5CC[C@H]4C2(C)C)[C@H](O)[C@H]1O`, the concentration for half-maximal inhibition (IC50) in test [1] was more than 100 µM; in test [2], more than 100 µM; in test [3] it was 2.8 µM; in test [4], 26.1 µM.
On to `CC(=O)O[C@@H]1C[C@@]23C[C@@]24CC[C@H](O[C@@H]2OC[C@@H](O)[C@H](O)[C@H]2O)C(C)(C)[C@@H]4CC[C@H]3[C@]2(C)[C@@H](O)[C@@]34C[C@H](C(C)(C)OC(C)=O)[C@@H](C[C@@H](C)[C@@H]3[C@@]12C)O4`, for which the IC50 is more than 100 µM in test [1], 47.5 µM in test [2], more than 100 µM in test [3] and more than 100 µM in test [4].
For `CC(=O)O[C@@H]1[C@@H](O)[C@H](O[C@H]2CC[C@]34C[C@]35C[C@@H](OC(C)=O)[C@]3(C)[C@H]6[C@H](C)C[C@]7(C[C@H](O)[C@@]8(C)O[C@@H]78)O[C@H]6C[C@@]3(C)[C@@H]5CC[C@H]4C2(C)C)OC[C@H]1O`, the concentration for half-maximal inhibition (IC50) in test [1] was 53.4 µM; in test [2], more than 100 µM; in test [3], 32.1 µM; in test [4], 50.1 µM.
The matching figures for `CC(=O)O[C@@H]1[C@@H](O)[C@H](O[C@H]2CC[C@]34C[C@]35C[C@@H](OC(C)=O)[C@]3(C)[C@H]6[C@H](C)C[C@@]7(CC[C@]8(C)O[C@H]78)O[C@H]6C[C@@]3(C)[C@@H]5CC[C@H]4C2(C)C)OC[C@H]1O`: more than 100 µM, more than 100 µM, 1.41 µM and 35.7 µM.
For the molecule `CC(=O)O[C@@H]1C[C@@]23C[C@@]24CC[C@H](O)C(C)(C)[C@@H]4CC[C@H]3[C@]2(C)C[C@@H]3O[C@@]4(CC[C@@]5(C)O[C@@H]45)C[C@@H](C)[C@@H]3[C@@]12C`, the IC50 in test [1] is 82.2 µM; in test [2], more than 100 µM; in test [3] it was 27.7 µM; in test [4], 35.4 µM.
The matching figures for `CC(=O)OC(C)(C)[C@H]1C[C@@]23O[C@@H]1C[C@@H](C)[C@@H]2[C@@]1(C)CC[C@@]24C[C@@]25CC[C@H](O)C(C)(C)[C@@H]5CC[C@H]4[C@]1(C)[C@H]3O`: more than 100 µM, more than 100 µM, 20.3 µM and more than 100 µM.
The matching figures for `CC(=O)O[C@@H]1C[C@@]23C[C@@]24CC[C@H](O)C(C)(C)[C@@H]4CC[C@H]3[C@]2(C)[C@@H](O)[C@@]34C[C@H](C(C)(C)O)[C@@H](C[C@@H](C)[C@@H]3[C@@]12C)O4`: more than 100 µM, more than 100 µM, 43.1 µM and more than 100 µM.
The matching figures for `C[C@@H]1C[C@H]2O[C@@]3(C[C@@H]2C(C)(C)O)[C@H](O)[C@@]2(C)[C@@H]4CC[C@H]5C(C)(C)[C@@H](O[C@@H]6OC[C@H](O)[C@H](O)[C@H]6O)CC[C@@]56C[C@@]46CC[C@]2(C)[C@@H]13`: more than 100 µM, more than 100 µM, 20.4 µM and more than 100 µM.
Take `C[C@@H]1C[C@H]2O[C@@]3(C[C@@H]2C(C)(C)O)[C@H](O)[C@@]2(C)[C@@H]4CC[C@H]5C(C)(C)C(=O)CC[C@@]56C[C@@]46CC[C@]2(C)[C@@H]13`: the IC50 in test [1] was 72 µM; in test [2] it was more than 100 µM; in test [3], 5.51 µM; in test [4], 15.4 µM.
The corresponding values for `CC(=O)O[C@@H]1C[C@@]23C[C@@]24CC[C@H](O)C(C)(C)[C@@H]4CC[C@H]3[C@]2(C)C[C@@H]3O[C@]4(C[C@@H](C)[C@@H]3[C@@]12C)C[C@H](O)[C@@]1(C)O[C@@H]41` [ACTEINOL] are more than 100 µM, more than 100 µM, 2.56 µM and more than 100 µM.
The matching figures for `CC(=O)O[C@@H]1C[C@@]23C[C@@]24CC[C@H](O[C@@H]2OC[C@@H](O)[C@H](O)[C@H]2O)C(C)(C)[C@@H]4CC[C@H]3[C@]2(C)C[C@@H]3OC(C(=O)C(C)C)=C[C@@H](C)[C@@H]3[C@@]12C` [ASIATICOSIDE A]: 54.8 µM, more than 100 µM, 4.02 µM and 49.4 µM.
For the molecule `CC(C)(O)[C@@H]1Cc2c(cc3oc(CO)cc(=O)c3c2O)O1` [NORCIMIFUGIN], the IC50 was more than 100 µM in test [1], more than 100 µM in test [2], 5.55 µM in test [3] and more than 100 µM in test [4].

For the origin of these results see ChEMBL document CHEMBL1154918, “Cytotoxic chemical constituents from the roots of Cimicifuga foetida. [corrected]” (J Nat Prod, 2010).
